According to ChEMBL document CHEMBL1201862, “PubChem BioAssay data set” (2004):
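Five concentrations, 48 hours, 96-well plates. The concentration for 50% growth inhibition is given as GI50.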 Active and inactive are the calls of the source. Rule as the data show it: active = GI50 up to about 1.1 µM and inactive = higher.

Columns and labels:
Experiment in all cases: NCI tumour cell line growth inhibition, 48 h
K562 = system: K562
UACC-257 = system: UACC-257
HCT-15 = system: HCT-15
HOP-62 = system: HOP-62
SN12C = system: SN12C
EKVX = system: EKVX
ACHN = system: ACHN
SK-MEL-2 = system: SK-MEL-2
SF-268 = system: SF-268
U-251 = system: U-251
M14 = system: M14
SNB-19 = system: SNB-19
SK-OV-3 = system: SK-OV-3
UO-31 = system: UO-31
MDA-MB-231 = system: MDA-MB-231
NCI-H226 = system: NCI-H226
IGROV-1 = system: IGROV-1
KM12 = system: KM12
OVCAR-8 = system: OVCAR-8
TK-10 = system: TK-10

SMILES | GI50 (K562) | GI50 (UACC-257) | GI50 (HCT-15) [µM] | GI50 (HOP-62) | GI50 (SN12C) | GI50 (EKVX) | GI50 (ACHN) | GI50 (SK-MEL-2) | GI50 (SF-268) | GI50 (U-251) | GI50 (M14) | GI50 (SNB-19) | GI50 (SK-OV-3) | GI50 (UO-31) | GI50 (MDA-MB-231) | GI50 (NCI-H226) | GI50 (IGROV-1) | GI50 (KM12) | GI50 (OVCAR-8) | GI50 (TK-10)
CCC(C)NC1=NCC(C)S1 (centres undefined) | > 100 µM (inactive) | > 100 µM (inactive) | > 100 | > 100 µM (inactive) | > 100 µM (inactive) | > 100 µM (inactive) | > 100 µM (inactive) | > 100 µM (inactive) | > 100 µM (inactive) | > 100 µM (inactive) | > 100 µM (inactive) | > 100 µM (inactive) | > 100 µM (inactive) | > 100 µM (inactive) | > 100 µM (inactive) | > 100 µM (inactive) | > 100 µM (inactive) | > 100 µM (inactive) |  | 
CO/C(=N\N=C(/c1ccccc1)C(F)(F)F)c1ccncc1 | 6.44 µM (inactive) |  | 27.5 | 46.6 µM (inactive) | 66.8 µM (inactive) |  |  | 25 µM (inactive) |  | 48.4 µM (inactive) | 52.6 µM (inactive) | > 100 µM (inactive) | 46.3 µM (inactive) | 38.6 µM (inactive) | 39.3 µM (inactive) | 17.2 µM (inactive) | 63.2 µM (inactive) | 43.7 µM (inactive) | 69.5 µM (inactive) | 
O=C(Nc1ccc2c(c1)oc(=O)c1ccccc12)C(Cl)Cl | 51.2 µM (inactive) | > 100 µM (inactive) | 71.1 | 62.1 µM (inactive) | > 100 µM (inactive) | 85.5 µM (inactive) | > 100 µM (inactive) | > 100 µM (inactive) | > 100 µM (inactive) | 60.1 µM (inactive) | > 100 µM (inactive) | 27.3 µM (inactive) |  | > 100 µM (inactive) | > 100 µM (inactive) | > 100 µM (inactive) | > 100 µM (inactive) | 33.2 µM (inactive) | > 100 µM (inactive) | 
CC(=O)C1(c2ccccc2)CCCN(C)CC1 (centres undefined) |  | > 100 µM (inactive) | > 100 | > 100 µM (inactive) |  |  |  | > 100 µM (inactive) |  | > 100 µM (inactive) | > 100 µM (inactive) | > 100 µM (inactive) | > 100 µM (inactive) | > 100 µM (inactive) | > 100 µM (inactive) | > 100 µM (inactive) | > 100 µM (inactive) | > 100 µM (inactive) | > 100 µM (inactive) | > 100 µM (inactive)
C=C1CC(C)(c2ccc(Nc3nc4ccccc4c4occc34)cc2)OC1=O (centres undefined) | 4.71 µM (inactive) | 0.0186 µM (active) | 1.94 | 12.5 µM (inactive) | 1.93 µM (inactive) | 12.1 µM (inactive) | 4.26 µM (inactive) |  | 2.93 µM (inactive) | 5.33 µM (inactive) | 2 µM (inactive) | 7.45 µM (inactive) | 10.8 µM (inactive) |  | 1.75 µM (inactive) | < 0.01 µM (active) |  | 5.97 µM (inactive) | 2.66 µM (inactive) | 4.86 µM (inactive)
ClC1=C(Cc2ccccc2)Cc2ccc3c(c21)CCC3 | 31.1 µM (inactive) | 23.1 µM (inactive) | 31.3 | 34.1 µM (inactive) | 34.4 µM (inactive) | 39.3 µM (inactive) | 29.9 µM (inactive) |  | 33.2 µM (inactive) | 19.1 µM (inactive) | > 100 µM (inactive) | 21.5 µM (inactive) | 83.6 µM (inactive) | 21.8 µM (inactive) | 21.8 µM (inactive) | 23 µM (inactive) | 41.9 µM (inactive) | 18.3 µM (inactive) | 36.8 µM (inactive) | 72.3 µM (inactive)
CSc1n[n+](C)cc(N)c1N | 39 µM (inactive) | 52 µM (inactive) | > 100 | > 100 µM (inactive) | > 100 µM (inactive) | > 100 µM (inactive) | > 100 µM (inactive) | > 100 µM (inactive) |  | > 100 µM (inactive) | > 100 µM (inactive) | 29.9 µM (inactive) | > 100 µM (inactive) | 88.9 µM (inactive) | > 100 µM (inactive) | > 100 µM (inactive) | > 100 µM (inactive) | > 100 µM (inactive) | > 100 µM (inactive) | > 100 µM (inactive)
O=C(CC(=O)N1N=C(N2CCCCC2)CC1c1ccccc1)Nc1ccc(Cl)cc1 (centres undefined) |  | > 100 µM (inactive) | > 100 | > 100 µM (inactive) | > 100 µM (inactive) | > 100 µM (inactive) | > 100 µM (inactive) | > 100 µM (inactive) | > 100 µM (inactive) | > 100 µM (inactive) | > 100 µM (inactive) | > 100 µM (inactive) |  | > 100 µM (inactive) | > 100 µM (inactive) | > 100 µM (inactive) | > 100 µM (inactive) | > 100 µM (inactive) | > 100 µM (inactive) | > 100 µM (inactive)
